Several values for one entry are separate records, joined by “and”; a condition that tells them apart may be missing. Identical values can stand only once. Entries after “also recorded” stand apart in the source; their conditions may differ. Like-named read-outs stand apart in the source and are kept apart here.
Legend:
[1] = target: T1, human Nurr1 ligand binding domain (LBD) fused to the Gal4 DNA binding domain (Homo sapiens, UniProt P43354); conditions: for comparison; cited from earlier work
[2] = target: T1, human Nurr1 ligand binding domain (LBD) fused to the Gal4 DNA binding domain; experiment: Hybrid Gal4-Nurr1 reporter gene assay in transiently transfected HEK293T cells; type: cell-based; conditions: for fold act. (maximum Nurr1 activation vs. DMSO (0.1 %)): purified compounds, mean±S.E.M., n≥3
Nurr1 LBD = Nurr1 LBD (Homo sapiens, UniProt P43354); experiment: HTRF assay of Nurr1 LBD homodimerization; type: biochemical
Chain of Nurr1 LBD (P43354 360-595 limits assumed): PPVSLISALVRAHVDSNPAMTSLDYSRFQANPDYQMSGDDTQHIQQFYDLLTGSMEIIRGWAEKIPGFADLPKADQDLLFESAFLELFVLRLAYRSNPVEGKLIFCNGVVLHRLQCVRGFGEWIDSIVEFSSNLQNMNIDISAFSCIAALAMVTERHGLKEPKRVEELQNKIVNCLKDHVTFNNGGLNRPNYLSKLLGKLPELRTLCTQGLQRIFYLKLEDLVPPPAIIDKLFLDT

T1 sequence (P43354 360-595 limits assumed): as above

SMILES	fold act. (maximum Nurr1 activation vs. DMSO (0.1 %)) [1]	EC50 [2]	fold act. (maximum Nurr1 activation vs. DMSO (0.1 %)) [2]	effect on Nurr1 LBD homodimerization (HTRF) (Nurr1 LBD)
Nc1ccnc2cc(Cl)ccc12 [compound 3, 4‐Amino‐7‐chloroquinoline]	2.5 fold and 2.5±0.4 fold			
CCN(CC)Cc1cc(Nc2ccnc3cc(Cl)ccc23)ccc1O [AQ, amodiaquine]	3.6 fold and 3.6±0.1 fold			
CCN(CC)CCCC(C)Nc1ccnc2cc(Cl)ccc12 (stereo not shown) [CQ, chloroquine]	2.0±0.1 fold			
O=C(Nc1ccnc2cc(Cl)ccc12)c1ccc(-c2ccc(Cl)cc2)o1 [compound 4, 5‐(4‐Chlorophenyl)‐N‐(7‐chloroquinolin‐4‐yl)furan‐2‐carboxamide]		3 ± 0.1 µM	2.0±0.1 fold	
Clc1ccc(-c2ccc(CNc3ccnc4cc(Cl)ccc34)o2)cc1 [3 j, 7‐Chloro‐N‐((5‐(4‐chlorophenyl)furan‐2‐yl)methyl)quinolin‐4‐amine]		8 ± 1 µM	2.5±0.1 fold	diminished dimerization; also recorded: diminished Nurr1 homodimerization
Clc1ccc(-c2ccc(CN3CCOc4cc(Cl)ccc43)o2)cc1 [compound 5, 7‐Chloro‐4‐((5‐(4‐chlorophenyl)furan‐2‐yl)methyl)‐3,4‐dihydro‐2H‐benzo[b][1,4]oxazine]		47 ± 13 µM	2.0±0.2 fold	
